# Data reported in US20240228927A1, “MICROFLUIDIC PLATFORM FOR DETECTION OF LIVER INJURY” (Javelin Biotech, Inc., priority 2023, published 2024).
# Tested on: liver
# Test: not given
# Conditions: BSEP / mitochondrial toxicity relative to the paired liver toxicant; cited from earlier work
row,Compound,Comparator characteristic
1,O=C1CC2(CCCC2)CC(=O)N1CCCCN1CCN(c2ncccn2)CC1 [Buspirone],Less BSEP

# Same assay, conditions: in vivo; cited from earlier work
Compound,DILI presentation (Liver toxicant),DILI presentation (Less toxic comparator),Mechanism of toxicity
N[C@@H]1[C@H]2CN(c3nc4c(cc3F)c(=O)c(C(=O)O)cn4-c3ccc(F)cc3F)C[C@@H]12 [Trovafloxacin],Acute liver,–,–
O=c1[nH]c(=O)n(C2OC(CO)C(O)C2F)cc1I (stereo not shown) [FIRU],–,No DILI,–
Mipomersen,ALT elevations,–,Lipid

# Same assay, conditions: less toxic comparator of Table 1; cited from earlier work
row,Compound,DILI presentation (Less toxic comparator)
1,COC(c1ccccc1)(c1ccccc1)[C@H](Oc1nc(C)cc(C)n1)C(=O)O [Ambrisentan],Minimal
2,O=C1CC2(CCCC2)CC(=O)N1CCCCN1CCN(c2ncccn2)CC1 [Buspirone],No/low
3,CCN(CC)C(=O)/C(C#N)=C/c1cc(O)c(O)c([N+](=O)[O-])c1 [Entacapone],Low DILI
4,CCc1ccc(CCOc2ccc(CC3SC(=O)NC3=O)cc2)nc1 (stereo not shown) [Pioglitazone],Low DILI
5,Cc1cc2c(s1)Nc1ccccc1N=C2N1CCN(C)CC1 [Olanzapine],No DILI

# Same assay, conditions: liver toxicant of Table 1; cited from earlier work
Compound,Mechanism of toxicity,DILI presentation (Liver toxicant)
CN1CCN(C2=Nc3cc(Cl)ccc3Nc3ccccc32)CC1 [Clozapine],Reactive,–
CCc1nn(CCCN2CCN(c3cccc(Cl)c3)CC2)c(=O)n1CCOc1ccccc1 [Nefazodone],Reactive,Liver failure
CC[C@H]1OC(=O)[C@H](C)C(=O)[C@H](C)[C@@H](O[C@@H]2O[C@H](C)C[C@H](N(C)C)[C@H]2O)[C@](C)(OC)C[C@@H](C)C(=O)[C@H](C)[C@H]2N(CCCCn3cnc(-c4cccnc4)c3)C(=O)O[C@]12C [Telithromycin],Bile acid,ALT elevations
Cc1cc2c(cc1CC(=O)c1sccc1S(=O)(=O)Nc1onc(C)c1Cl)OCO2 [Sitaxsentan],Reactive,ALT elevations
CC(c1cc2ccccc2s1)N(O)C(N)=O (stereo not shown) [Zileuton],Reactive,ALT elevations
Cc1c(C)c2c(c(C)c1O)CCC(C)(COc1ccc(CC3SC(=O)NC3=O)cc1)O2 (stereo not shown) [Troglitazone],Reactive,"ALT, bilirubin"
N[C@@H]1[C@H]2CN(c3nc4c(cc3F)c(=O)c(C(=O)O)cn4-c3ccc(F)cc3F)C[C@@H]12 [Trovafloxacin],Immune-,–
O=c1[nH]c(=O)n([C@@H]2O[C@H](CO)[C@@H](O)[C@@H]2F)cc1I [Fialuridine],Mitochondrial,Liver failure
Cc1ccc(C(=O)c2cc(O)c(O)c([N+](=O)[O-])c2)cc1 [Tolcapone],Reactive,ALT elevations;
C=C[C@@H]1C[C@]1(NC(=O)[C@@H]1C[C@@H](Oc2ncc(OC)c3ccc(Cl)cc23)CN1C(=O)[C@@H](NC(=O)OC(C)(C)C)C(C)(C)C)C(=O)NS(=O)(=O)C1CC1 [Asunaprevir],–,ALT elevations

# Tested on: in vitro liver tissue
# Test: mitochondrial stress test: on-chip oxygen consumption rate (OCR) of liver tissue
# Type: cell-based, human
# Conditions: oligomycin 1 μM, FCCP 0.3 μM, rotenone 1 μM with antimycin A 0.5 μM, 30 min each; matured tissue on chip
# From the text: The microfluidic chip 100 and control system perform measurements of the oxygen consumption rate of in vitro liver tissue as a readout of mitochondrial function.
# Oxygen sensing is achieved by combining a disposable oxygen sensor spot with an oxygen sensing meter. The meter provides an optical excitation signal to the sensor spot and measures the emitted light from the sensor spot. The light emitted by the sensor spot is influenced by a partial pressure of oxygen in fluid in contact with the sensor spot. Two sensor spots are placed in the primary flow path either side of the tissue culture area to measure the oxygen consumption of the tissue. The meters in the control module are placed such that they can measure the oxygen sensor values during normal operation.
# The microfluidic chip 100 performs quantification of cellular respiration to assess mitochondrial function. […] To assess the sensitivity of the oxygen sensors 124a-b and on-chip OCR estimates, the microfluidic chip 100 performs a mitochondrial stress test. After cells are seeded on chips (e.g., 4 per treatment), tissue is matured (˜5-7 days), and basal OCR is established, oligomycin (1 μM & 30 min), which blocks proton translocation through complex V and represses ATP and OCR, are administered to the chips and OCR are assessed continuously. […] The oxygen sensors 124a-b read oxygen levels on the fluid path before and after the cell chamber. The inlet readout represents oxygenated media levels leaving the reoxygenation channel and the outlet readout reflects oxygen-depleted media due oxygen consumption of liver tissue. The continuous readouts are captured and recorded by the controller 114 of the microfluidic chip 100.
row,Compound,OCR (oxygen consumption rate)
1,"C=C(C)[C@H]1Cc2c(ccc3c2O[C@@H]2COc4cc(OC)c(OC)cc4[C@@H]2C3=O)O1 [Rotenone, rotenone]",complete reduction in OCR
2,FCCP,increases OCR to its maximum level
3,CC[C@H]1/C=C/C=C/C[C@@H](C)[C@H](O)[C@@](C)(O)C(=O)[C@@H](C)[C@H](O)[C@@H](C)C(=O)[C@@H](C)[C@H](O)[C@@H](C)/C=C/C(=O)O[C@@H]2[C@H](C)[C@H](CC1)O[C@]1(CC[C@H](C)[C@H](C[C@@H](C)O)O1)[C@H]2C [oligomycin],"decreased OCR values, but non-zero values"

# Tested on: not given
# Test: not given
# Conditions: clinically observed, human plasma; cited from earlier work
row,Compound,Cmax
1,O=C(O)Cc1ccccc1Nc1c(Cl)cccc1Cl [Diclofenac],4 to 10 µM
